Reference: the SangsterLogP compilation

Test: method code SF-GLC, from DOI: 10.1584/jpestics.5.553

Row | logP | SMILES
1 | 2.45 | CCOC(=O)C(C(=O)OCC)=C1SCCS1
2 | 2.9 | CCOC(=O)C(C(=O)OC(C)C)=C1SCCS1
3 | 3.38 | CCCOC(=O)C(C(=O)OCCC)=C1SCCS1
4 | 1.51 | COC(=O)C(C(=O)OC)=C1SCCS1

Further lines, the molecule ahead of its results:

Row | SMILES | logP
5 | CSC(SC)=C(C(=O)OC(C)C)C(=O)OC(C)C | 3.38
6 | CC(C)(C)OC(=O)C(C(=O)OC(C)(C)C)=C1SCCS1 | 4.01
7 | CCCCCCCOC(=O)C(C(=O)OCCCCCCC)=C1SCCS1 | 7.6
8 | CCCCOC(=O)C(C(=O)OCCCC)=C1SCCS1 | 4.6
9 | CCCCCOC(=O)C(C(=O)OCCCCC)=C1SCCS1 | 5.6
10 | CC(C)OC(=O)C(C(=O)OC(C)C)=C1SCCS1=O (stereo not given) | 1.6
